Where “and” joins values, the source holds several entries; their conditions need not be identical. Equal values may be shown once.
Conditions: Fluid (supercritical or subcritical phases), Coaxial cylinder method

CCCCCC [hexane]
thermal conductivity
Conditions	508.17 K	508.92 K
900 kPa	–	0.03769 W/m/K
1100 kPa	–	0.03855 W/m/K
1234 kPa	–	0.03889 W/m/K
1401 kPa	–	0.03933 W/m/K
1510 kPa	–	0.03959 W/m/K
1603 kPa	–	0.03996 W/m/K
1710 kPa	–	0.04032 W/m/K
1806 kPa	–	0.0407 W/m/K
1908 kPa	–	0.04118 W/m/K
2006 kPa	–	0.04167 W/m/K
2111 kPa	–	0.04248 W/m/K
2210 kPa	–	0.043 W/m/K
2300 kPa	–	0.04353 W/m/K
2409 kPa	–	0.04463 W/m/K
2509 kPa	–	0.04579 W/m/K
2600 kPa	–	0.04701 W/m/K
2650 kPa	–	0.04777 W/m/K
2726 kPa	–	0.0491 W/m/K
2744 kPa	–	0.04937 W/m/K
2752 kPa	–	0.04965 W/m/K
2763 kPa	–	0.04993 W/m/K
2847 kPa	–	0.05261 W/m/K
2898 kPa	–	0.05429 W/m/K
2902 kPa	–	0.05464 W/m/K
2927 kPa	–	0.05568 W/m/K
2949 kPa	0.0646 W/m/K	–
2953 kPa	0.06509 W/m/K	–
2955 kPa	–	0.05752 W/m/K
2956 kPa	0.06509 W/m/K	–
2963 kPa	0.06603 W/m/K	–
2966 kPa	0.06628 W/m/K	–
2968 kPa	–	0.05888 W/m/K
2970 kPa	0.06681 W/m/K	–
2974 kPa	0.06734 W/m/K	–
2975 kPa	–	0.05948 W/m/K
2979 kPa	0.06826 W/m/K	–
2982 kPa	0.0687 W/m/K	–
2985 kPa	–	0.06031 W/m/K
2988 kPa	–	0.06094 W/m/K
2990 kPa	0.07041 W/m/K	–
2991 kPa	0.0707 W/m/K	–
2992 kPa	–	0.06115 W/m/K
2995 kPa	0.07129 W/m/K	–
2998 kPa	0.07219 W/m/K	–
2999 kPa	–	0.06202 W/m/K
3002 kPa	0.07324 W/m/K	–
3004 kPa	–	0.06246 W/m/K
3007 kPa	0.07436 W/m/K	–
3009 kPa	0.07488 W/m/K	–
3011 kPa	–	0.06336 W/m/K
3013 kPa	0.0758 W/m/K	–
3015 kPa	0.07648 W/m/K	0.06429 W/m/K
3017 kPa	0.07703 W/m/K	–
3019 kPa	–	0.06477 W/m/K
3021 kPa	0.07822 W/m/K	–
3022 kPa	0.07848 W/m/K	–
3024 kPa	0.0792 W/m/K	–
3025 kPa	–	0.06574 W/m/K
3026 kPa	0.07994 W/m/K	–
3028 kPa	–	0.06624 W/m/K
3029 kPa	0.08069 W/m/K	–
3031 kPa	0.08185 W/m/K	–
3033 kPa	0.08287 W/m/K	0.06751 W/m/K
3034 kPa	0.08344 W/m/K	–
3035 kPa	–	0.06804 W/m/K
3036 kPa	0.08467 W/m/K	–
3037 kPa	0.08467 W/m/K	–
3038 kPa	0.08604 W/m/K	–
3039 kPa	0.08566 W/m/K	0.06857 W/m/K
3040 kPa	0.08735 W/m/K	–
3041 kPa	0.08647 W/m/K and 0.08824 W/m/K	–
3042 kPa	0.09103 W/m/K	0.06938 W/m/K
3043 kPa	0.09201 W/m/K	–
3044 kPa	–	0.06994 W/m/K
3045 kPa	0.09401 W/m/K	–
3046 kPa	0.09504 W/m/K	–
3047 kPa	0.0961 W/m/K	–
3048 kPa	0.09828 W/m/K	0.07107 W/m/K
3049 kPa	0.09941 W/m/K	–
3050 kPa	0.1017 W/m/K	0.0715 W/m/K
3051 kPa	0.1048 W/m/K	–
3052 kPa	0.1081 W/m/K	0.07223 W/m/K
3053 kPa	0.1119 W/m/K	–
3054 kPa	0.1168 W/m/K	–
3055 kPa	0.1226 W/m/K	0.07344 W/m/K
3056 kPa	0.1319 W/m/K	0.07375 W/m/K
3057 kPa	0.1487 W/m/K	–
3058 kPa	0.1625 W/m/K	–
3059 kPa	0.1438 W/m/K	0.07469 W/m/K
3060 kPa	0.1319 W/m/K	0.07532 W/m/K
3061 kPa	0.1231 W/m/K	–
3062 kPa	0.1168 W/m/K	–
3063 kPa	0.1123 W/m/K	0.0763 W/m/K
3064 kPa	0.1088 W/m/K	–
3065 kPa	0.106 W/m/K	0.07747 W/m/K
3066 kPa	0.1039 W/m/K	–
3067 kPa	0.1024 W/m/K	0.07868 W/m/K
3068 kPa	0.1006 W/m/K	0.07903 W/m/K
3069 kPa	0.09945 W/m/K	0.0801 W/m/K
3070 kPa	0.09832 W/m/K	0.08047 W/m/K
3071 kPa	0.09743 W/m/K	0.08084 W/m/K
3073 kPa	0.09613 W/m/K	0.08254 W/m/K
3074 kPa	0.09508 W/m/K	0.08353 W/m/K
3075 kPa	0.09456 W/m/K	0.08412 W/m/K
3076 kPa	0.09404 W/m/K	0.08532 W/m/K
3077 kPa	0.09323 W/m/K	0.08593 W/m/K
3078 kPa	0.09287 W/m/K	0.08697 W/m/K
3079 kPa	0.09237 W/m/K	0.08803 W/m/K
3080 kPa	0.09171 W/m/K	0.08934 W/m/K
3081 kPa	0.09127 W/m/K	0.09069 W/m/K
3082 kPa	0.09079 W/m/K	0.09234 W/m/K
3083 kPa	0.09032 W/m/K	0.09384 W/m/K
3084 kPa	0.08985 W/m/K	0.09568 W/m/K
3085 kPa	0.08955 W/m/K	0.0977 W/m/K
3086 kPa	0.0889 W/m/K	0.1001 W/m/K
3087 kPa	0.08845 W/m/K	0.103 W/m/K
3088 kPa	0.088 W/m/K	–
3089 kPa	0.08755 W/m/K	–
3090 kPa	0.08755 W/m/K	–
3091 kPa	0.08711 W/m/K	–
3092 kPa	0.08667 W/m/K	–
3094 kPa	0.08581 W/m/K	–
3095 kPa	0.08539 W/m/K	–
3100 kPa	0.08334 W/m/K	–
3105 kPa	0.08267 W/m/K	–
3108 kPa	0.08217 W/m/K	–
3115 kPa	0.08124 W/m/K	–
3120 kPa	0.08025 W/m/K	–
3125 kPa	0.08032 W/m/K	–
3130 kPa	0.08032 W/m/K	–
3132 kPa	0.08032 W/m/K	–
